Assay results taken from patent US20240408086A1, “USE OF LUVADAXISTAT FOR THE TREATMENT OF COGNITIVE IMPAIRMENT” (TAKEDA PHARMACEUTICAL COMPANY LIMITED, priority 2021, published 2024).
Like-named read-outs stand apart in the source and are kept apart here.

Legend:
[1] = tested on: patients with schizophrenia; test: Phase 1b crossover study: mismatch negativity (MMN) amplitude; assay type: in vivo, human
Description: (§1) NCT03359785 was a randomized, double-blind, placebo-controlled cross-over Phase 1b clinical trial in schizophrenia patients at a single site to evaluate PD effects, safety, tolerability, and pharmacokinetics of multiple oral doses of Compound (I). The objective of the study was to assess pharmacodynamic (PD) biomarkers of Compound (I) on measures related to cerebellar circuitry function and NMDA pharmacology that are known to be affected in schizophrenia.
Evoked potentials in the electroencephalogram were also tested to assess the impact of multiple oral doses of Compound (I) on NMDA-sensitive physiological responses that are affected in schizophrenia. Specifically, mismatch negativity (MMN), auditory steady state response (ASSR), and P300 were measured at baseline and following 8 days of treatment in both periods.
MMN is an oddball event-related potential sensitive to NMDA-receptor pharmacology. MMN is an event related potential (ERP) evoked in response to unattended changes in background stimulation and is responsive to D-serine elevations. There is evidence of D-serine administration improving MMN in patients with schizophrenia. MMN reflects an automatic process of detecting a mismatch between a deviant stimulus and a sensory-memory trace (FIGS. 11A, 11B). Smaller amplitudes of MMN have been consistently identified in schizophrenia participants, with a large effect size compared with healthy controls. In this study, MMN amplitude was measured at Midline frontal electrode (Fz) of electroencephalogram [EEG].
All endpoints were analyzed as change from baseline compared to placebo within the same subjects. Statistical comparisons were conducted with an ANOVA model, with treatment sequence, period, and treatment as fixed effects, and subject as a random effect. As a supplementary analysis, an analysis of covariance model (ANCOVA) was applied to the primary endpoint with (period) baseline as a covariate, treatment sequence, period, treatment effect and baseline-by-treatment as fixed effects, and subject as a random effect.

[2] = tested on: patients with schizophrenia; test: Phase 1b crossover study: eye-blink conditioning (EBC); assay type: in vivo, human
Description: as §1
The primary endpoint was the average percentage of conditioned responses during the eye-blink conditioning (EBC) test at day 8 of each treatment period (FIG. 10). EBC was used to assess the impact of Compound (I) on cerebellar circuitry function. EBC is a highly conserved reflex that is dependent on cerebellar circuitry, with NMDA receptors playing a key role. EBC is impaired in patients with schizophrenia compared with healthy controls.
All endpoints were analyzed as change from baseline compared to placebo within the same subjects. Statistical comparisons were conducted with an ANOVA model, with treatment sequence, period, and treatment as fixed effects, and subject as a random effect. […]

[3] = tested on: adult patients with persistent negative symptoms of schizophrenia; assay type: in vivo, human; conditions: 50 mg, 125 mg, 500 mg once daily
Mouse [4] = test: Eyeblink conditioning (ataxia and schizophrenia), 10-day QD; assay type: in vivo; parameters: key: a + sign means efficacious; a − sign means not efficacious; conditions: 10-Day Once Daily (QD)
Description: (§2) In Table 1, a + sign means efficacious, a − sign means not efficacious, and an empty cell indicates a dose was not tested.

[5] = tested on: adult patients with persistent negative symptoms of schizophrenia; assay type: in vivo, human; conditions: for SCoRS Interviewer Total Score, Difference from Placebo for Week 12, LS Mean (SE) / SCoRS Interviewer Total Score, Adjusted Change from Baseline to Week 12, LS Mean (SE): MMRM; for SCoRS Interviewer Total Score, Difference from Placebo for Week 12, LS Mean (SE) / SCoRS Interviewer Total Score, Adjusted Change from Baseline to Week 12, LS Mean (SE) / SCoRS Interviewer Total Score, Change from Baseline to Week 12, Mean (SD) / SCoRS Interviewer Total Score, Change from Baseline to Week 12, Median / SCoRS Interviewer Total Score, Week 12, Mean (SD) / SCoRS Interviewer Total Score, Week 12, Median: preliminary analysis
Description: To assess changes in cognitive impairment associated with schizophrenia (CIAS), secondary endpoints included the 12-week change from baseline in the Brief Assessment of Cognition in Schizophrenia (BACS) composite score, a measure of cognition across multiple domains, and the Schizophrenia Cognition Rating Scale (SCORS) score, a measure of day-to-day cognitive functioning requiring input from an adult informant. Secondary endpoints were not corrected for multiplicity.
The SCORS is an interview-based measure of cognitive functioning that was developed to specifically assess aspects of cognitive functioning in participants with schizophrenia. The items assess the 7 cognitive domains of attention, memory, reasoning and problem solving, working memory, processing speed, language functions, and social cognition. The SCORS global total scores is the sum of the 20 items, and it varies from 20 to 80 with 20 being the best outcome and 80 being the worst.

Mouse [6] = test: BALB/C social interaction; assay type: in vivo; parameters: key: a + sign means efficacious; a − sign means not efficacious; conditions: for BALB/C social interaction (negative symptoms): 14-Day Once Daily (QD); for BALB/C social interaction (acute): Single Dose
Description: as §2

D-serine in cerebellum = test: D-serine increase in cerebellum (6 hours); assay type: in vivo; parameters: key: a + sign means efficacious; a − sign means not efficacious; conditions: Mouse
Description: DAAO inhibition increases levels of D-serine, a co-agonist of the N-methyl-d-aspartate (NMDA) receptor. […] Increases in cerebellum D-serine levels may also influence distal regions of the brain (such as the hippocampus) or cortical regions, through a mechanism that remains to be elucidated. […] In Table 1, a + sign means efficacious, a − sign means not efficacious, and an empty cell indicates a dose was not tested.

Mouse [7] = test: Poly I:C social interaction (acute); assay type: in vivo; parameters: key: a + sign means efficacious; a − sign means not efficacious; conditions: Single Dose
Description: as §2

## O=c1[nH]nc(CCc2ccc(C(F)(F)F)cc2)cc1O [Compound (I), luvadaxistat]
[1]; 50 mg for 8 days
  MMN amplitude, effect size vs placebo: −0.691
[1]; 50 mg for 8 days, placebo 0.669, p=0.0497
  MMN amplitude, LS means change from baseline: −0.239
[1]; 500 mg for 8 days
  MMN amplitude, effect size vs placebo: 0.389
[1]; 500 mg for 8 days, placebo −0.154, p=0.8517
  MMN amplitude, LS means change from baseline: 0.594
[2]; 50 mg for 8 days, p=0.109
  EBC change from baseline, effect size vs placebo (ANCOVA): 0.246
[2]; 500 mg for 8 days, p=0.777
  EBC change from baseline, effect size vs placebo (ANCOVA): −0.198
[3]
  Negative symptoms as measured with the BNSS: no significant improvements
Mouse [4]; 0.1 mg/kg
  Eyeblink conditioning (ataxia and schizophrenia): +
Mouse [4]; 1 mg/kg
  Eyeblink conditioning (ataxia and schizophrenia): +
[5]; 50 mg once daily, 12 weeks, p=0.011, not corrected for multiplicity
  SCoRS interviewer total score, effect size versus placebo: 0.4
[5]; 50 mg once daily, one-sided unadjusted p 0.007*
  SCoRS Interviewer Total Score, Difference from Placebo for Week 12, LS Mean (SE): −2.4 (0.94)
[5]; 50 mg once daily
  SCoRS Interviewer Total Score, Adjusted Change from Baseline to Week 12, LS Mean (SE): −3.7 (0.77)
  SCoRS Interviewer Total Score, Change from Baseline to Week 12, Mean (SD): −4.0 (5.93)
  SCoRS Interviewer Total Score, Change from Baseline to Week 12, Median: −3.0
  SCoRS Interviewer Total Score, Week 12, Mean (SD): 35.5 (10.91)
  SCoRS Interviewer Total Score, Week 12, Median: 32.0
[5]; 50 mg once daily, placebo −1.6
  SCoRS interviewer total score, 12-week LS mean change from baseline: −3.8
[5]; 125 mg once daily, one-sided unadjusted p 0.236
  SCoRS Interviewer Total Score, Difference from Placebo for Week 12, LS Mean (SE): −0.7 (0.96)
[5]; 125 mg once daily
  SCoRS Interviewer Total Score, Adjusted Change from Baseline to Week 12, LS Mean (SE): −2.1 (0.77)
  SCoRS Interviewer Total Score, Change from Baseline to Week 12, Mean (SD): −2.1 (5.89)
  SCoRS Interviewer Total Score, Change from Baseline to Week 12, Median: −2.0
  SCoRS Interviewer Total Score, Week 12, Mean (SD): 36.1 (9.69)
  SCoRS Interviewer Total Score, Week 12, Median: 36.5
[5]; 500 mg once daily, one-sided unadjusted p 0.449
  SCoRS Interviewer Total Score, Difference from Placebo for Week 12, LS Mean (SE): −0.1 (0.98)
[5]; 500 mg once daily
  SCoRS Interviewer Total Score, Adjusted Change from Baseline to Week 12, LS Mean (SE): −1.5 (0.84)
  SCoRS Interviewer Total Score, Change from Baseline to Week 12, Mean (SD): −2.4 (5.34)
  SCoRS Interviewer Total Score, Change from Baseline to Week 12, Median: −2.0
  SCoRS Interviewer Total Score, Week 12, Mean (SD): 39.4 (9.60)
  SCoRS Interviewer Total Score, Week 12, Median: 39.0
Mouse [6]; 0.001 mg/kg
  BALB/C social interaction (negative symptoms): −
Mouse [6]; 0.003 mg/kg
  BALB/C social interaction (negative symptoms): −
Mouse [6]; 0.01 mg/kg
  BALB/C social interaction (negative symptoms): +
Mouse [6]; 0.03 mg/kg
  BALB/C social interaction (negative symptoms): +
Mouse [6]; 0.1 mg/kg
  BALB/C social interaction (negative symptoms): +
Mouse [6]; 0.3 mg/kg
  BALB/C social interaction (negative symptoms): +
  BALB/C social interaction (acute): −
Mouse [6]; 1 mg/kg
  BALB/C social interaction (negative symptoms): +
  BALB/C social interaction (acute): +
Mouse [6]; 3 mg/kg
  BALB/C social interaction (negative symptoms): +
  BALB/C social interaction (acute): +
D-serine in cerebellum; 14-Day Once Daily (QD), 0.03 mg/kg
  D-serine increase in cerebellum (6 hours): −
D-serine in cerebellum; 14-Day Once Daily (QD), 0.1 mg/kg
  D-serine increase in cerebellum (6 hours): −
D-serine in cerebellum; 14-Day Once Daily (QD), 0.3 mg/kg
  D-serine increase in cerebellum (6 hours): +
D-serine in cerebellum; 14-Day Once Daily (QD), 1 mg/kg
  D-serine increase in cerebellum (6 hours): +
D-serine in cerebellum; 14-Day Once Daily (QD), 3 mg/kg
  D-serine increase in cerebellum (6 hours): +
D-serine in cerebellum; Single Dose, 0.3 mg/kg
  D-serine increase in cerebellum (6 hours): +
D-serine in cerebellum; Single Dose, 1 mg/kg
  D-serine increase in cerebellum (6 hours): +
D-serine in cerebellum; Single Dose, 3 mg/kg
  D-serine increase in cerebellum (6 hours): +
D-serine in cerebellum; Single Dose, 10 mg/kg
  D-serine increase in cerebellum (6 hours): +
Mouse [7]; 0.3 mg/kg
  Poly I:C social interaction (acute): −
Mouse [7]; 1 mg/kg
  Poly I:C social interaction (acute): −
Mouse [7]; 3 mg/kg
  Poly I:C social interaction (acute): +
